Results as given in patent US5055476A, “3-(1,2-benzisoxazol-3-yl)-4-pyridinamines and derivatives” (Hoechst-Roussel Pharmaceuticals Incorporated, priority 1990, dated 1991).

Tests used:
[1] = test system: phenyl-para-quinone writhing; experiment: phenyl-para-quinone writhing assay in mice (analgesia); format: in vivo
Text: The compounds of the present invention are useful as analgesic agents. […] Exptl. Biol. Med., 95, 729 (1957)].

[2] = test system: Scopolamine Induced Memory Deficit; experiment: Dark Avoidance Assay (reversal of scopolamine induced memory deficit); format: in vivo; conditions: mice
Method: In this assay, mice are tested for their ability to remember an unpleasant stimulus for a period of 24 hours. A mouse is placed in a chamber that contains a dark compartment; a strong incandescent light drives it to the dark compartment, where an electric shock is administered through metal plates on the floor. The animal is removed from the testing apparatus and tested again, 24 hours later, for the ability to remember the electric shock.

[3] = test system: ear edema induced by topical application of TPA; experiment: TPA-Induced Ear Edema (TPAEE); format: in vivo, Female Swiss Webster mice; conditions: for TPAEE (change in TPA-induced ear edema): 10 μg/ear topical, TPA 10 μg/ear, five hours
Method: The purpose of this assay was to determine the ability of a topically-applied compound to prevent ear edema induced by topical application of TPA (phorbol 12-myristate acetate). Female Swiss Webster mice topically received TPA (10 μg/ear) on the right ear and vehicle on the left ear. The test compound (10 μg/ear) was applied to both ears. After five hours, the animals were sacrificed and an ear punch (4 mm) was taken from each ear. The difference in right and left ear punch weights for each animal was determined to assess activity. […] See Young, J. M. et al., J. Invest. Dermatol., 80 (1983), pp. 48-52.

`Nc1ccncc1-c1noc2ccccc12.O=C(O)/C=C\C(=O)O` [3-(1,2-Benzisoxazol-3-yl)-4-pyridinamine maleate] was tested, and the “% Inhibition of Writhing” value ([1]; 20 mg/kg of body wt. s.c., mice) was 40%, the “% of Animals with Scopolamine Induced Memory Deficit Reversal” value (from here on “% of Animals”) ([2]; 1.0 mg/kg s.c., 24 hours) was 21% and the “% of Animals” value ([2]; 10.0 mg/kg s.c., 24 hours) was 33%. The “TPAEE (change in TPA-induced ear edema)” value [3] was -29%.
For `CC(C)(C)C(=O)Nc1ccncc1-c1noc2ccccc12` [N-[3-(1,2-Benzisoxazol-3-yl)-4-pyridinyl]-2,2-dimethylpropanamide], the “% of Animals” value ([2]; 3.0 mg/kg s.c., 24 hours) was 20% and the “TPAEE (change in TPA-induced ear edema)” value [3] was -23%.
In the case of `CNC(=O)Oc1ccc2c(c1)[C@]1(C)CCN(C)[C@@H]1N2C` [Physostigmine, reference compound], the “% of Animals” value ([2]; 0.31 mg/kg s.c., 24 hours (reference)) was 20%.
For `CCC(=O)O[C@](Cc1ccccc1)(c1ccccc1)[C@H](C)CN(C)C` [Propoxyphene, reference compound], the “% Inhibition of Writhing” value ([1]; 3.9 mg/kg of body wt. s.c., mice (standard)) was 50%.
With `C[C@]12CCC(=O)C=C1CC[C@@H]1[C@@H]2[C@@H](O)C[C@@]2(C)[C@H]1CC[C@]2(O)C(=O)CO` [hydrocortisone, reference compound] the “ED50 (TPA-induced ear edema)” value ([3]; standard, topical, mice) was 47 μg/ear.
